Results from patent publication US20220257664A1, “METHOD FOR REGULATION OF SELECTIVE DIFFERENTIATION OF MUSCULOSKELETAL STEM CELLS” (CELLATOZ THERAPEUTICS, INC., priority 2019, published 2022).

B1: noggin: human noggin, ingredient 1) of the MSSC medium, 250 ng/mL (protein, UniProt Q13253 28-232, looked up)
Noggin: QHYLHIRPAPSDNLPLVDLIEHPDPIFDPKEKDLNETLLRSLLGGHYDPGFMATSPPEDRPGGGGGAAGGAEDLAELDQLLRQRPSGAMPSEIKGLEFSEGLAQGKKQRLSKKLRRKLQMWLWSQTFCPVLYAWNDLGSRFWPRYVKVGSCFSKRSCSVPEGMVCKPSKSVHLTVLRWRCQRRGGQRCGWIPIQYPIISECKCSC

Key:
hMSSCs = assay: Induction of selective differentiation of hMSSCs transplanted into mouse; assay type: in vivo; conditions: mixed with heparin, transplanted into subcutaneous tissue of mouse; FIG. 8
Method: In order to measure the possibility of selective differentiation of hMSSCs, hMSSCs were transplanted into the kidney (kidney capsule) or subcutaneous tissue of Balb/c nude mouse by pretreating with various growth factors such as connective tissue growth factor, transforming growth factor, insulin, fibroblast growth factor, etc. and then preparing into a cell aggregate (4×10^5 cells) or mixing with a cell carrier. 3-6 weeks after the transplantation, tissue was analyzed after removing the transplanted cells.
For investigation of the selective differentiation capacity of the hMSSCs induced in the same manner as in Example 2 into muscle in vivo, hMSSCs were mixed with fibrin glue to which heparin was added and then transplanted into the subcutaneous tissue of an immunodeficient mouse. 7 weeks after the transplantation of hMSSCs, tissue was stained with H&E and the STEM101 antibody (Takara, Japan) binding to the human cell nucleus marker in order to identify whether the differentiated tissue was derived from the hMSSCs. In addition, the differentiated tissue was immunofluorescence staining with an antibody against the muscle marker MyoD (Thermo Fisher Scientific Inc., USA) in order to identify muscle cells. The cell nuclei were counterstained with DAPI. […]

hESCs = assay: Differentiation tendency of MSSC medium vs. CM medium (number of differentiations out of 20 observations); assay type: cell-based, human; conditions: noggin contained, as compared to CM medium
Method: The differentiation capacity of a medium (hereinafter, referred to as “CM medium”) obtained by replacing human noggin (Life Technologies), which is the ingredient 1) of the seven ingredients of the MSSC medium of Example 2, with conditioned medium (culture supernatant obtained after culturing CF1 cells for 24 hours using complete medium wherein DMEM/F12 is replaced with knockout DMEM (knockout DMEM supplemented with 20% knockout serum replacement (Invitrogen, USA), 1 mM glutamine, 1% nonessential amino acids (Invitrogen, USA), 0.1 mM β-mercaptoethanol, 0.1% penicillin-streptomycin and 5 mg/mL bovine serum albumin) (the remaining ingredients 2)-7) are the same) was compared with that of the MSSC medium.
Noggin is generally used to maintain the characteristics of hESCs during culturing (Chaturvedi G, Simone P D, Ain R, Soares M J, Wolfe M W. Noggin maintains pluripotency of human embryonic stem cells grown on Matrigel. Cell Prolif. 2009 August; 42(4): 425-33).

| Molecule | selective differentiation of hMSSCs (hMSSCs) | increase of tendency of osteogenic differentiation (hESCs) [times] |
| --- | --- | --- |
| heparin | differentiated selectively into muscle only | – |
| B1 | – | ≥ 10 |
